{"source": "patent US20080160509A1", "about": "“ASSAYS FOR PREDICTING AND ASSESSING PREDISPOSITION TO MALE PATTERN BALDNESS” (priority 2006, published 2008)", "key": {"[1]": {"biological_target": "sex hormone binding globulin (SHBG) (Homo sapiens, UniProt P04278)", "sequence (P04278 30-402)": "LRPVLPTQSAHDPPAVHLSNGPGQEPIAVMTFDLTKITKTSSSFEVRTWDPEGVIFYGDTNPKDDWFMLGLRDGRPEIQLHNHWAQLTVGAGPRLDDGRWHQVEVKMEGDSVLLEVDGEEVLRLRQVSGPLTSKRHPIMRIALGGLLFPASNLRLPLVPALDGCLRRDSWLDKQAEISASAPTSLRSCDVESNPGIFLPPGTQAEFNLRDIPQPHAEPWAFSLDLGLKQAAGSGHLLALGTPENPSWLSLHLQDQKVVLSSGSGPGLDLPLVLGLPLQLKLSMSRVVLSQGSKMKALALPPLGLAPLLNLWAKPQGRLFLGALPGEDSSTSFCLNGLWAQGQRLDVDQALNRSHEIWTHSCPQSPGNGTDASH", "conditions": "ratio versus testosterone; cited from earlier work"}, "[2]": {"test_system": "bald subject (Norwood Level VII)", "test": "Antiviral agent and hair growth study in a bald subject", "assay_type": "in vivo, human", "from_the_text": "A bald subject (Norwood Level VII) who routinely gets fever blisters volunteered to take place in a study to see if the topical application and oral consumption of antiviral drugs would result in hair growth. The individual lacks any hairs on the top of their head. The participant was instructed to cleanse their scalp twice daily with a liquid cleanser using a sonic skincare brush (Clarisonic®). After cleansing topical acyclovir (5%) was applied. The subject is not a candidate for any of the FDA-approved hair loss medications because of a lack of vellus hairs.\nAfter approximately four weeks of treatment, the participant was given valacyclovir (500 mg) instead of oral acyclovir because of potential acyclovir resistance. In addition, the concentration of topical acyclovir was increased to 10%.\nThe fact that vellus hair formation occurred and converted to pigmented hairs is highly unexpected in a participant with Norwood Level VII baldness."}}}
{"smiles": "C[C@]12CCC(=O)C[C@@H]1CC[C@@H]1[C@@H]2CC[C@]2(C)[C@@H](O)CC[C@@H]12", "note": "[DHT, 5α-dihydrotestosterone]", "values": [{"measurement": "binding affinity for SHBG relative to testosterone", "setting": "[1]", "result": "at least three times"}]}
{"smiles": "Nc1nc2c(ncn2COCCO)c(=O)[nH]1", "note": "[acyclovir]", "values": [{"measurement": "conversion of vellus hairs to pigmented hairs", "setting": "[2]; after 16 weeks of treatment, topical acyclovir 10% plus oral valacyclovir (500 mg)", "result": "some of the vellus hairs converted to pigmented hairs"}, {"measurement": "hair lengthening", "setting": "[2]; after 20 weeks, topical acyclovir 10% plus oral valacyclovir (500 mg)", "result": "pigmented and unpigmented vellus hairs continued to lengthen"}, {"measurement": "hair growth on scalp", "setting": "[2]; at 12 weeks, topical acyclovir increased to 10% plus oral valacyclovir (500 mg) from about week 4", "result": "long, unpigmented vellus hairs were visible on the scalp"}, {"measurement": "oral lesions", "setting": "[2]; human, in vivo", "result": "marked increase in oral lesions"}, {"measurement": "hair growth on scalp noted by participant", "setting": "[2]; topical acyclovir (5%) after twice daily scalp cleansing, after two weeks of treatment, one person, Norwood Level VII", "result": "small vellus hairs"}]}
